Experiment [1] has as its target T1, Serotonin 1B receptor (5-HT1BR) (Homo sapiens, UniProt P28222).
T1 construct: expressed in transfected cells; host or cells: HEK-293
Nature of the experiment: Functional assay in HEK-293 cells (cAMP). The format is cell-based. On the procedure: Neuro-receptor binding and functional effects of the “E559 polymorph” was examined by analyzing binding affinity [Ki (nM)], functional agonist activity [EC50 (nM)], and functional antagonist activity [IC50 (nM)] against a panel of key receptors in neurophysiological disorders. Binding and functional assays were performed at “E559 polymorph” concentrations of 0.0003, 0.003, 0.01, 0.03, 0.1, 0.3, 1, and 10 μM. In binding assays, cell membrane homogenates, expressing each receptor target, were incubated with the corresponding radio-ligand in absence or presence of several concentration of the “E559 polymorph” compound. The measurement of binding affinity of the “E559 polymorph” is represented in TABLE XIII by Ki (nM) which was calculated as percent inhibition of the binding of a radioactively labeled reference ligand at each receptor. In functional assays the HEK-293 cells expressing each receptor target were suspended in buffer and distribute in microplates and incubated for 30 minutes at room temperature or 37° C. in the presence of buffer alone (basal control), the reference agonist or antagonist, or the “E559 polymorph. Following incubation, the cells were lysed and the appropriate fluorescent probe (Ca2+ flux, cAMP, or IP1) were added for 60 minutes to measure the fluorescence transfer at the appropriate wavelength using a microplate reader. The cellular agonist effect (EC50) was calculated as a percent of control response to a known reference agonist and the cellular antagonist effect (IC50) was calculated as a percent inhibition of control reference agonist response for each receptor.
The functional agonist activity [EC50 (nM), Emax], and functional antagonist activity [IC50 (nM)] of the 5R:8S stereoisomer of the “E559 polymorph” (5R:8S E558) was compared with the “E559 polymorph” (a 5R:8R stereoisomer) at selected serotonin receptors. The assays were performed as described in Example 6.

Experiment [2] deals with T2, Serotonin 2C receptor (5-HT2CR) (Homo sapiens, UniProt P28335).
T2 construct: expressed in transfected cells; host or cells: HEK-293
T2 sequence (P28335 33-458): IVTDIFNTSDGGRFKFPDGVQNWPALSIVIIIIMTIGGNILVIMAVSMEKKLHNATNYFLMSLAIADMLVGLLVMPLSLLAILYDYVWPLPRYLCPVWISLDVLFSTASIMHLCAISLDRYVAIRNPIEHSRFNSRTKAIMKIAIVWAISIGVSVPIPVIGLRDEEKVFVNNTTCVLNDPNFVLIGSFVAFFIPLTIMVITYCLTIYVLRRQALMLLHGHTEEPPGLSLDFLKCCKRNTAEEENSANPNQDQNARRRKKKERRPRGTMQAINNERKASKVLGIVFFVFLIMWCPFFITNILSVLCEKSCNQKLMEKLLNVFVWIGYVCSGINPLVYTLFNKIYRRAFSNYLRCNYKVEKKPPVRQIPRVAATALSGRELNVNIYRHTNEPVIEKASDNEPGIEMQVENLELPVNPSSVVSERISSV
Nature of the experiment: Functional assay in HEK-293 cells (IP1). The format is cell-based. As for the experimental part:
Neuro-receptor binding and functional effects of the “E559 polymorph” was examined by analyzing binding affinity [Ki (nM)], functional agonist activity [EC50 (nM)], and functional antagonist activity [IC50 (nM)] against a panel of key receptors in neurophysiological disorders. Binding and functional assays were performed at “E559 polymorph” concentrations of 0.0003, 0.003, 0.01, 0.03, 0.1, 0.3, 1, and 10 μM. In binding assays, cell membrane homogenates, expressing each receptor target, were incubated with the corresponding radio-ligand in absence or presence of several concentration of the “E559 polymorph” compound. The measurement of binding affinity of the “E559 polymorph” is represented in TABLE XIII by Ki (nM) which was calculated as percent inhibition of the binding of a radioactively labeled reference ligand at each receptor. […] Following incubation, the cells were lysed and the appropriate fluorescent probe (Ca2+ flux, cAMP, or IP1) were added for 60 minutes to measure the fluorescence transfer at the appropriate wavelength using a microplate reader. The cellular agonist effect (EC50) was calculated as a percent of control response to a known reference agonist and the cellular antagonist effect (IC50) was calculated as a percent inhibition of control reference agonist response for each receptor.

Another experiment addresses T3, hERG channel (Homo sapiens, UniProt Q12809).
T3 construct: expressed in transfected cells; host or cells: CHO-K1
Nature of the experiment: Cell-based hERG antagonist assay, CHO-K1 cells, tail current. As for the experimental part:
The human […] (hERG) channel, is a potassium channel whose inhibition is related to cardiac arrhythmias (Abbott et al., Cell, 1999, V97(2); p175-187). The effect of the “E559 polymorph” on the hERG channel was performed in a cell-based hERG antagonist assay. In brief, CHO-K1 cells were stably transfected with human hERG cDNA and allowed to achieve whole cell configuration in culture. Cells were held at −80 mV and a 500 ms pulse to −40 mV is delivered to measure the leaking current, which is subtracted from the tail current on-line. Then the cell is depolarized to +40 mV for 500 ms and then to −80 mV over a 100 ms ramp to elicit the hERG tail current. This paradigm is delivered once every 8 s to monitor the current amplitude. The assay is conducted at room temperature. The “E559 polymorph” is then applied to cells from low to high concentrations (0.0003, 0.003, 0.01, 0.03, 0.1, 0.3, 1, 10, 30, and 100 μM) sequentially for 5 minutes. Astermizole is used at multiple concentrations as a reference compound to calculate the percent inhibition of hERG channel by the “polymorph E559”.

The test system of experiment [3] is 5-HT1 receptor subtypes: 5-HT1A, 1B, 1D, 1E, and 1F. Format: cell-based, human. The conditions noted are these: FIG. 15, FIG. 16A/B; listed as E559 polymorph.
Experiment [4] concerns primary rat embryonic cortical neurons. Put plainly: In vitro dendritogenesis and spinogenesis assays, Sholl analysis. The format is cell-based. As for the experimental part:
The ability of the “E559 polymorph” to induce neural plasticity was evaluated in vitro. In vitro dendritogenesis and spinogenesis assays were conducted using primary rat embryonic cortical neurons. Briefly, cultured primary cortical neurons (rat) were treated at day in vitro (DIV) 3 for 3 hours with increasing concentrations (1, 10 and 100 nM, 1 and […]) of the “E559 polymorph” and morphological changes in dendritic arbor complexity (dendritogenesis) were assessed at DIV6 by immunofluorescent staining of fixed neurons with microtubule-associated protein 2 (MAP2, a microtubule marker), F-actin (cytoskeletal marker), and phalloidin (actin filament marker) followed by fluorescent microscopy and Sholl analysis of neurons' images. […] The spine density assessments (spinogenesis) were made on DIV 18. The cell viability assessments were made on DIV 6 by using the Neurite Outgrowth Staining Kit which includes fluorescent probes for dead and live neuronal cells. Ketamine was used as a comparator and positive control. Ketamine is known to induce dendritogenesis and its effects on synaptic plasticity are believed to mediate its antidepressant effects (Aguilar-Valles et al., Nature, 2021, 590, p315-319). Representative images of MAP2 stained rat cortical neurons treated with vehicle (no drug control) or with “E559 polymorph” is shown in FIG. 18A.
Horizontal lines in all figure panels represent the means±standard error of the mean (S.E.M.).

The values that follow come from patent publication US12331051B2 (priority 2021, dated 2025).

“Also recorded” adds a separate entry of the source.

T1 sequence (P28222 whole entry): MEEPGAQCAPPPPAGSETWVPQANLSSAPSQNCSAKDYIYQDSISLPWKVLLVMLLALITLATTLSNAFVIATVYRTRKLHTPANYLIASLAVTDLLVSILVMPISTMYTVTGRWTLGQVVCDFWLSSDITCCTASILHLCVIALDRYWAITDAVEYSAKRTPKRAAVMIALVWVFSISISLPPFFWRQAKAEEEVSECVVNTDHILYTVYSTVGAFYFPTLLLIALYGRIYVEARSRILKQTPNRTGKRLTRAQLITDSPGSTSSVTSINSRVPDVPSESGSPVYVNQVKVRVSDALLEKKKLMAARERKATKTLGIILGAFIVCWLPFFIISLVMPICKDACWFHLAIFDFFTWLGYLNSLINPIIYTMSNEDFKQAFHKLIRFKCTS
T3 sequence (Q12809 whole entry): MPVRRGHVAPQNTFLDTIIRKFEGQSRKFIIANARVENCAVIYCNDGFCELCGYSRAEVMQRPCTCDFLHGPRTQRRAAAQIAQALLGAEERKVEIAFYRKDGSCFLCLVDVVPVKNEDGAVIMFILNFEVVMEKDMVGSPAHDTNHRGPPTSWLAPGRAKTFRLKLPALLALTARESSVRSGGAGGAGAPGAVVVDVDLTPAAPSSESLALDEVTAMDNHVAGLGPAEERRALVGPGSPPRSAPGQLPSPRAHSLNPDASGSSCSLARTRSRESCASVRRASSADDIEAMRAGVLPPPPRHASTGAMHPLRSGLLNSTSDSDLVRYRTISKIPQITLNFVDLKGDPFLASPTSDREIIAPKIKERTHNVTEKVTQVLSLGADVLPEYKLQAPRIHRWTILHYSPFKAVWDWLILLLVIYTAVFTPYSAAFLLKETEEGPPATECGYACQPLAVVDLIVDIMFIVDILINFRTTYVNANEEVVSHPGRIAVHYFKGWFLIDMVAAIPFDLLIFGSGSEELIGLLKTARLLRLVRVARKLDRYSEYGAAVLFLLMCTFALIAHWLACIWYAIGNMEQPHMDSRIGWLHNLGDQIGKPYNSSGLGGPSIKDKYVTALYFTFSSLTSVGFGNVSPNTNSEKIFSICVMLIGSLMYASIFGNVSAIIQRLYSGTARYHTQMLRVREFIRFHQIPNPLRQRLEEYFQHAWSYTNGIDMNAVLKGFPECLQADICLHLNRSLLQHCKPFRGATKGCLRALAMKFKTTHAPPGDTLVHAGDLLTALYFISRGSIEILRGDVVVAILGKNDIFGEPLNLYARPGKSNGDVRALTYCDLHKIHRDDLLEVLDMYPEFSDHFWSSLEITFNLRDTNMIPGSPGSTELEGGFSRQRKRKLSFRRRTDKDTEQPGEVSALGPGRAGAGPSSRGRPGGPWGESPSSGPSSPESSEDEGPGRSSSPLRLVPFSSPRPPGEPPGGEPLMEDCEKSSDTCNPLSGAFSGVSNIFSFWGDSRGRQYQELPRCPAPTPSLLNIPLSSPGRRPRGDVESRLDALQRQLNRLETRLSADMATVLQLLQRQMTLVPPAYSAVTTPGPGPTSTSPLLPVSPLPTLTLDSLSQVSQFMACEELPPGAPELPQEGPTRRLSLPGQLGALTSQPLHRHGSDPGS

Broadly, the IC50 is the concentration needed to halve the response being measured. Usually EC50 stands for the concentration that produces a half-maximal response. As a reminder, the Emax is the maximal effect, on the per cent scale that the assay sets. In the case of `CCN(CC)C(=O)[C@@H]1C=C2c3cccc4[nH]c(Br)c(c34)C[C@H]2N(C)C1` [E559, (5R, 8R)-2-Bromo-9,10-didehydro-N,N-diethyl-6-methylergoline-8-carboxamide hemi-D-tartrate], the IC50 in experiment [1] is > 10000 nM; in experiment [2] it was 1100 nM. Further, the EC50 in experiment [1] (Functional (Agonist) EC50 (nM), cAMP) is 6.69 nM; in experiment [1] (Functional Assay (agonist) EC50 (nM), cAMP, ligand 5-HT), 6.96 nM; in experiment [2], > 10000 nM; at hERG channel it was 31600 nM. Further, in experiment [1] (HEK293, cAMP, ligand 5-HT, read-out: Functional Assay (agonist) Emax), the Emax was found to be 100%. The “functional activity at 5-HT1 receptor subtypes” value in experiment [3] is “moderate to potent agonist across all the 5-HT1 receptor subtypes; also recorded: exhibits the greatest potency (agonism) at 5-HT1F and 5-HT1D receptors”. For the same compound, the “lowest concentration at which increase in neuronal plasticity reached statistical significance” value in experiment [4] (3 hours treatment at DIV3) was determined as 1 µM. Also, the “lowest concentration at which increase in neuronal plasticity was detectable” value in experiment [4] (3 hours treatment at DIV3) was 1 nM. For the same compound, the “total length of the dendritic arbor” value in experiment [4] (DIV6, 1 and 10 μM) is “total length of the dendritic arbor was also increased”. Further, in experiment [4] (DIV6, 1 and 10 μM significant vs control), the “total dendrites crossing the Sholl radii” value is listed as “significantly increased the number of total dendrites crossing the Sholl radii”. In addition, the spine density entry in experiment [4] (DIV 18, 3-hour incubation at 1 and 10 μM) is recorded as “increased the spine density”.
